Reference: patent publication US9855230B2 (ViiV Healthcare UK (No. 5) Limited, priority 2014, dated 2018)
pEC50: −log10 of the molar value. Structures can show the parent of a compound that is named as a salt. Where two headings read alike, the source gives them in different places.

Assays:
[1] = Compound cytotoxicity (CC50), XTT-based colorimetric assay; format: cell-based; conditions: human; uninfected MT2 cells, day 4, XTT assay
Outline: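 Run under the antiviral-assay protocol but without virus. Viability was read on day 4 and CC50 values were derived from the readout.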

[2] = test system: recombinant NL4-3 virus (nef section replaced with Renilla luciferase gene) in MT-2 cells; assay: whole plant or invertebrate; format: cell-based, HIV
Outline: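 Nef-deleted NL4-3 reporter virus carrying Renilla luciferase was used to infect MT-2 cells in the presence of serial compound dilutions. After 4-5 days of infection, antiviral activity was quantified from luciferase activity using a live-cell substrate.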

[3] = NL43, luciferase activity in MT-2 cells infected 4-5 days with recombinant NL4-3 virus, read-out: Activity
[4] = NL43, luciferase activity in MT-2 cells infected 4-5 days with recombinant NL4-3 virus, read-out: EC50

Row | Compound | CC50 at 4 day [1] | pEC50 [2, 3] | pEC50 [2, 4] | pEC50 ([2]; NL43) | pEC50 ([2]; NL43, read-out: Activity)
1 | COC(=O)Nc1ccc(-n2ccnc2[C@H](Cc2ccccc2)NC(=O)NS(=O)(=O)c2ccc(C)cc2)cc1 [Example 38, (S)-methyl (4-(2-(2-phenyl-1-(3-tosylureido)ethyl)-1H-imidazol-1-yl)phenyl)carbamate] | > 100000 nM | 6.00 to 7.00 | – | – | –
2 | Cc1nc2cc(-n3ccnc3[C@H](Cc3ccccc3)NC(=O)NS(=O)(=O)c3ccccc3F)ccc2s1 [Example 73, (S)-2-fluoro-N-((1-(1-(2-methylbenzo[d]thiazol-5-yl)-1H-imidazol-2-yl)-2-phenylethyl)carbamoyl)benzenesulfonamide] | > 100000 nM | 6.00 to 7.00 | – | – | –
3 | Cc1ccccc1S(=O)(=O)NC(=O)N[C@@H](Cc1ccccc1)c1nccn1-c1ccc2c(c1)OCCO2 [Example 22] | > 100000 nM | 6.00 to 7.00 | – | – | –
4 | COc1c(F)cc(F)cc1-c1cccnc1[C@H](Cc1cc(F)cc(F)c1)NC(=O)NS(=O)(=O)c1ccccc1C [Example 134] | > 50000 nM | < 6.00 | – | – | –
5 | Cc1ccccc1S(=O)(=O)NC(=O)N[C@@H](Cc1ccccc1)c1nccn1-c1ccc2c(c1)ncn2C [Example 66, (S)-2-methyl-N-((1-(1-(1-methyl-1H-benzo[d]imidazol-5-yl)-1H-imidazol-2-yl)-2-phenylethyl)carbamoyl)benzenesulfonamide] | > 100000 nM | 6.00 to 7.00 | 6.47 | – | –
6 | Cc1ccccc1S(=O)(=O)NC(=O)N[C@@H](Cc1ccccc1)c1nccn1-c1ccc2occc2c1 [Example 77, (S)-N-((1-(1-(benzofuran-5-yl)-1H-imidazol-2-yl)-2-phenylethyl)carbamoyl)-2-methylbenzenesulfonamide] | > 100000 nM | > 7.00 | – | – | –
7 | COC(=O)Nc1ccc(-n2ccnc2[C@H](Cc2ccccc2)NC(=O)NS(=O)(=O)c2ccc(C)s2)cc1 [Example 46, (S)-methyl (4-(2-(1-(3-((5-methylthiophen-2-yl)sulfonyl)ureido)-2-phenylethyl)-1H-imidazol-1-yl)phenyl)carbamate] | > 100000 nM | 6.00 to 7.00 | – | – | –
8 | CCOc1ccc(-c2cccnc2[C@H](Cc2ccccc2)NC(=O)NS(=O)(=O)c2ccccc2C)cc1 [Example 88, (S)-N-((1-(3-(4-ethoxyphenyl)pyridin-2-yl)-2-phenylethyl)carbamoyl)-2-methylbenzenesulfonamide] | > 100000 nM | 6.00 to 7.00 | – | – | –
9 | Cc1ccccc1S(=O)(=O)NC(=O)N[C@@H](Cc1cc(F)cc(F)c1)c1ncccc1-c1ccc(-c2cccs2)cc1 [Example 125, (S)-N-((2-(3,5-difluorophenyl)-1-(3-(4-(thiophen-2-yl)phenyl)pyridin-2-yl)ethyl)carbamoyl)-2-methylbenzenesulfonamide, TFA] | 38000 nM | < 6.00 | – | – | –
10 | O=C(N[C@H](Cc1cc(F)cc(F)c1)c1ncccc1-c1ccc2ccncc2c1)NS(=O)(=O)c1ccccc1Cl [Example 99, (R)-2-chloro-N-((2-(3,5-difluorophenyl)-1-(3-(isoquinolin-7-yl)pyridin-2-yl)ethyl)carbamoyl)benzenesulfonamide, 2 TFA] | > 33000 nM | – | – | 5.97 | < 6.00
11 | O=C(N[C@H](Cc1cc(F)cc(F)c1)c1ncccc1-c1c[nH]c2ccccc12)NS(=O)(=O)c1ccccc1Cl [Example 102, (R)-N-((1-(3-(1H-indol-3-yl)pyridin-2-yl)-2-(3,5-difluorophenyl)ethyl)carbamoyl)-2-chlorobenzenesulfonamide, 2 TFA] | > 33000 nM | < 6.00 | 4.94 | – | –
12 | O=C(N[C@@H](Cc1ccccc1)c1nccn1-c1ccc2occc2c1)NS(=O)(=O)c1ccccc1F [Example 78, (S)-N-((1-(1-(benzofuran-5-yl)-1H-imidazol-2-yl)-2-phenylethyl)carbamoyl)-2-fluorobenzenesulfonamide] | > 100000 nM | > 7.00 | 7.70 | – | –
13 | Cc1ccccc1S(=O)(=O)NC(=O)N[C@@H](Cc1cc(F)cc(F)c1)c1ncccc1-c1ccc(F)c(C(=O)O)c1 [Example 131, (S)-5-(2-(2-(3,5-difluorophenyl)-1-(3-(o-tolylsulfonyl)ureido)ethyl)pyridin-3-yl)-2-fluorobenzoic Acid, TFA] | > 100000 nM | < 6.00 | – | – | –
14 | COC(=O)Nc1ccc(-n2ccnc2[C@H](Cc2ccccc2)NC(=O)NS(=O)(=O)c2ccccc2OC(F)(F)F)cc1 [Example 45, (S)-methyl (4-(2-(2-phenyl-1-(3-((2-(trifluoromethoxy)phenyl)sulfonyl)ureido)ethyl)-1H-imidazol-1-yl)phenyl)carbamate] | > 100000 nM | > 7.00 | 7.22 | – | –
15 | O=C(N[C@H](Cc1cc(F)cc(F)c1)c1ncccc1-c1cccc(C(=O)NC2CC2)c1)NS(=O)(=O)c1ccccc1Cl [Example 106, (R)-3-(2-(1-(3-((2-chlorophenyl)sulfonyl)ureido)-2-(3,5-difluorophenyl)ethyl)pyridin-3-yl)-N-cyclopropylbenzamide, TFA] | > 100000 nM | < 6.00 | – | – | –
16 | Cc1ccccc1S(=O)(=O)NC(=O)N[C@H](Cc1ccccc1)c1ncccc1Br [Example 112, (R)-N-((1-(3-bromopyridin-2-yl)-2-phenylethyl)carbamoyl)-2-methylbenzenesulfonamide, TFA] | > 100000 nM | < 6.00 | – | – | –
17 | COc1ccc(-n2ccnc2[C@H](Cc2ccccc2)NC(=O)NS(=O)(=O)c2ccccc2C)cc1OC [Example 10, (S)-N-((1-(1-(3,4-dimethoxyphenyl)-1H-imidazol-2-yl)-2-phenylethyl)carbamoyl)-2-methylbenzenesulfonamide] | > 100000 nM | > 7.00 | – | – | –
18 | COC(=O)Nc1ccc(-n2ccnc2[C@H](Cc2ccccc2)NC(=O)NS(=O)(=O)c2cc(Cl)sc2Cl)cc1 [Example 55, (S)-methyl (4-(2-(1-(3-((2,5-dichlorothiophen-3-yl)sulfonyl)ureido)-2-phenylethyl)-1H-imidazol-1-yl)phenyl)carbamate] | > 100000 nM | > 7.00 | – | – | –
19 | COc1ccc(-n2ccnc2[C@H](Cc2ccccc2)NC(=O)NS(=O)(=O)c2ccccc2F)cc1 [Example 58, (S)-2-fluoro-N-((1-(1-(4-methoxyphenyl)-1H-imidazol-2-yl)-2-phenylethyl)carbamoyl)benzenesulfonamide] | > 33000 nM | > 7.00 | – | – | –
20 | COC(=O)Nc1ccc(-n2ccnc2[C@H](Cc2ccccc2)NC(=O)NS(=O)(=O)C(C)C)cc1 [Example 52, (S)-methyl (4-(2-(1-(3-(isopropylsulfonyl)ureido)-2-phenylethyl)-1H-imidazol-1-yl)phenyl)carbamate] | > 100000 nM | 6.00 to 7.00 | – | – | –
21 | Cc1ccccc1S(=O)(=O)NC(=O)N[C@@H](Cc1cc(F)cc(F)c1)c1nccn1-c1ccc2c(c1)CCO2 [Example 82, (S)-N-((2-(3,5-difluorophenyl)-1-(1-(2,3-dihydrobenzofuran-5-yl)-1H-imidazol-2-yl)ethyl)carbamoyl)-2-methylbenzenesulfonamide] | > 100000 nM | 6.00 to 7.00 | – | – | –
22 | Cc1ccccc1S(=O)(=O)NC(=O)N[C@@H](Cc1ccccc1)c1nccn1-c1ccc(Br)cc1 [Example 15, (S)-N-((1-(1-(4-bromophenyl)-1H-imidazol-2-yl)-2-phenylethyl)carbamoyl)-2-methylbenzenesulfonamide] | > 100000 nM | 6.00 to 7.00 | 6.72 | – | –
